In US20030125287A1, “Antisense oligonucleotides and methods to induce tumor cell death” (Hybridon, Inc., priority 2001, published 2003):
“Also recorded” adds a separate entry of the source. Oligonucleotides are written 5' to 3', each unit as a sugar letter and its base; * is a phosphorothioate linkage, no mark a phosphodiester; rarer units and linkages stand in square brackets, end groups in braces. Plain capitals give the bases only. d = 2'-deoxy (DNA)

How the values were obtained:
Format in all cases: cell-based, human
[1] = test system: TC620 cells; assay: Propidium iodide staining, nuclear morphology of TC620 cells; details: for nuclear morphology by PI staining: 600 nM (FIG. 7); for number of cells in metaphase, with zVAD-fmk compared with oligonucleotide alone: 600 nM plus zVAD-fmk (FIG. 8B)
Experimental: Propidium iodide (PI) staining was performed to investigate changes in nuclear morphology caused by treatment of TC620 cells with survivin antisense oligonucleotides. […] TC620 cells were treated with lipofectin (FIG. 7A), or 600 nM mismatch oligonucleotide 1132 (FIG. 7B), survivin antisense oligonucleotide 904 (FIGS. 7C and 7E), or 906 (FIG. 7D), and stained with PI. Quantification results for TC620 cells treated with 600 nM survivin antisense oligonucleotide 904, 906, or mismatch oligonucleotide 1132, alone or in the presence of zVAD-fmk, are shown in FIGS. 8A-B. Cells in metaphase were identified as those with chromosomes aligned on the metaphase plate.
Survivin antisense oligonucleotide-treated cells were fixed with 4% paraformaldehyde for 30 min at room temperature, washed with 1×TBS, permeabilized with 0.1% Triton X-100 for 30 min and treated with 10 μg/ml DNasc free RNase A (Sigma) for 60 min. Nuclei were stained with 200 μg /ml PI for 30 min at 4° C. and washed twice with 1×TBS. Nuclear morphology was assessed on an inverted Olympus 1×70 fluorescence microscope equipped with phase and epifluorescence optics. For each treatment about 600 nuclei were scored as normal, condensed (apoptotic), or abnormal (macronuclei, multilobed) on 15 random, 40×objective fields in duplicate. Quantification results are mean±SEM obtained from two independent experiments performed in duplicate.

[2] = test system: TC620 cells; assay: Trypan blue assay (cell death) in TC620 cells
Experimental: At 100 nM, 200 nM, and 400 nM, the percentage of dead cells was 28%, 36%, and 62%, respectively. The percentages of Trypan blue-positive cells treated with 200 nM (8%) and 400 nM (7.5%) mismatched oligonucleotide 1132 were similar to the lipofectin control (6%). Cells were treated with lipofectin, survivin antisense oligonucleotide 904 at 100, 200, or 400 nM, or mismatched oligonucleotide 1132 at 200 nM or 400 nM concentrations. Cells were harvested 48 hours after the treatment and stained with 0.04% Trypan blue as described for FIG. 4.
To further examine whether cell death induced by treatment of TC620 cells with survivin antisense oligonucleotides occurs via a caspase-dependent mechanism, another experiment was performed to investigate the effect of a caspase inhibitor on cell death. […] TC620 cells were treated with lipofectin or 600 nM survivin antisense oligonucleotide 904, 906, or mismatch oligonucleotide 1132 alone, or co-treated with 20 μM zVAD-fmk.
Cells were harvested 48 hours after survivin antisense treatment, stained with 0.04% Trypan blue (GIBCO), and counted on a hemocytometer. The number of Trypan blue positive cells relative to the total number of cells in each field was obtained and the data were expressed as a percentage of dead cells relative to the total cell number. Individual experiments were performed in triplicate. MSN cell studies were performed three times, while studies in TC620 cells were performed once.

[3] = test system: apoptosis-inducing factor (AIF); assay: AIF immunostaining and DAPI double-labeling of MSN cells; details: for AIF localization: 600 nM (FIGS. 9H-9K)
Experimental: To examine whether down-regulation of survivin induces AIF nuclear translocation, AIF and DAPI double-labeling was performed on MSN cells treated with lipofectin (FIG. 9H), or 600 nM survivin antisense oligonucleotide 904 (FIG. 9I), mismatch oligonucleotide 1132 (FIG. 9J), or survivin antisense oligonucleotide 906 (FIG. 9K).
Lipofectin, mismatch oligonucleotide 1132 or survivin antisense oligonucleotide-treated MSN cells were fixed and permeabilized as described for PI staining, and blocked for 1 h at room temperature with 10% normal goat serum in 5% non-fat, dry milk in 1×TBS. […] Omission of the primary antibody confirmed that the immunostaining was specific. Cells were counterstained with the DNA-specific dye DAPI (1:1000 of a 1 mg/ml stock; 15 min at room temperature). Cells were examined with an Olympus 1×70 inverted microscope. Fluorescent images were collected using a 12-bit Photometrics cooled CCD camera. For each treatment, 15 random, 40×objective fields consisting of about 600 cells were examined. TRITC (red) and DAPI (blue) stained cells were scored as having AIF staining either in the mitochondria or the nucleus relative to the total number examined. In parallel, the DAPI stained nuclei were also scored as normal, condensed, or abnormal nuclei. Experiments were performed in duplicate.

[4] = test system: survivin; assay: Western blot of survivin protein in antisense oligonucleotide-treated MSN cells; details: for effect on survivin protein levels / percentage of survivin protein over β-tubulin relative to lipofectin: lipofectin; for effect on survivin protein levels: 48 hours; for decrease in survivin protein levels relative to lipofectin-treated control, normalized to β-tubulin / percentage of survivin protein over β-tubulin relative to lipofectin: 400 nM, 48 hours (FIG. 3A)
Experimental: Six survivin (900-906) antisense oligonucleotides were administered at 400 nM to MSN cells in the presence of lipofectin for 48 hours. Each lane has 100 μg of protein. The blots were cut at 32.9 kD and the bottom incubated with the survivin polyclonal antibody (1:500), while the top was incubated with β-tubulin.
Since survivin antisense oligonucleotide 903 decreased survivin protein levels by 76%, the dose dependency of 903 on survivin protein levels was further studied. As expected, mismatched oligonucleotides had no effect on the relative abundance of survivin. […] In the presence of lipofectin, survivin antisense oligonucleotide 903 was administered to MSN cells for 48 hours at 50 nM to 200 nM. Total protein (100 μg) was loaded/lane.
Survivin antisense oligonucleotide 904 decreased survivin protein levels by 46% and 60% while survivin levels were unchanged in cells incubated with the mismatched oligonucleotide 1132. MSN cells were treated with lipofectin, survivin antisense oligonucleotide 904 or 908 at 400 nM and 600 nM, or mismatched oligonucleotide 1132 at 400 nM concentrations. Total protein (100 μg) was separated by SDS polyacrylamide gel electrophoresis and transferred to a nitrocellulose support. The blots were cut at 32.9 kD and the bottom blots incubated with the survivin polyclonal antibody (1:500), while the top blots were incubated with tubulin.
The antisense oligonucleotides were synthesized on solid support with an automated DNA synthesizer using β-cyanoethylphosphoramidite chemistry. In order to prevent rapid degradation of the antisense oligonucleotides by cellular nucleases, oxidation was carried out with Becauge sulfurizing agent to obtain phosphorothioate backbone modified oligonucleotides. After their synthesis, the oligonucleotides were released from the solid support, deprotected, purified by reverse-phase HPLC, desalted, filtered and lyophilized. The purity and sequence integrity of oligonucleotides was ascertained by capillary gel electrophoresis and MALDI-TOF mass spectral analysis and the concentrations measured at […]. Cells were grown in 100 mm dishes and oligonucleotide treatment was performed on subconfluent cultures in the presence of Lipofectin (GIBCO) according to the manufacturer. Forty-eight hours following treatment, total protein homogenates were isolated.
Ten micrograms of the fusion protein was incubated with the survivin antibody (1:500) at 4° C. for 2 hours to overnight prior to immunoblotting. […] Blots were cut at 32.9 kD, and the bottom part of the blots were incubated with the survivin antibody overnight at 4° C. and visualized by enhanced chemiluminescence (Enhanced Chemiluminescence, Amersham, Arlington Heights, Ill.) as previously described (Sharma et al. Cell. Motil. Cytoskeleton 27:234-247).

[5] = 600 nM co-treated with 20 μM zVAD-fmk (FIG. 6B)

Substance | nuclear morphology by PI staining [1] | percentage of apoptotic cells (chromatin fragmentation, apoptotic bodies) by PI staining ([1]; 600 nM (FIG. 8A)) | percentage of cells with abnormal (multiple multilobed) nuclei by PI staining ([1]; 600 nM (FIG. 8A)) | number of cells in metaphase, with zVAD-fmk compared with oligonucleotide alone [1] | percentage of dead (Trypan blue-positive) cells ([2]; 200 nM, 48 hours (FIG. 6A)) | percentage of dead (Trypan blue-positive) cells ([2]; 400 nM, 48 hours (FIG. 6A)) | percentage of cells with normal-appearing nuclei by DAPI staining ([3]; 600 nM) | percentage of cells with nuclear localization / translocation of AIF ([3]; 600 nM) | AIF localization [3] | effect on survivin protein levels [4] | percentage of dead (Trypan blue-positive) cells ([2]; 100 nM, 48 hours (FIG. 6A)) | percentage of Trypan blue positive cells ([2]; 600 nM alone (FIG. 6B)) | percentage of Trypan blue positive cells [2, 5] | cell death, Trypan blue positive cells ([2]; 48 hours (FIG. 6A)) | decrease in survivin protein levels ([4]; 400 nM (FIG. 4C)) | decrease in survivin protein levels relative to lipofectin-treated control, normalized to β-tubulin [4] | percentage of survivin protein over β-tubulin relative to lipofectin [4] | decrease in survivin protein levels ([4]; 600 nM (FIG. 4C))
d(GCACCTAGTCTCCCTGCACC) (DNA, all phosphorothioate, methylation of C not given here) [Oligo 1132, mismatched phosphorothioate control oligonucleotide, not complementary to survivin mRNA, reference compound] | normal nuclear morphology | 2% | 1% | did not affect the number of cells in metaphase | 8% | 7.5% | 95% | 4-8% | robust AIF staining in the cytosol | had no effect; also recorded: did not alter survivin protein levels |  |  |  |  |  |  |  | 
d(TCTTGGCTCTTTCTCTGTCC) (antisense dT*dC*dT*dT*dG*dG*dC*dT*dC*dT*dT*dT*dC*dT*dC*dT*dG*dT*dC*dC) [Oligo 904, 20-mer phosphorothioate survivin antisense oligonucleotide, complementary to survivin mRNA 5248-5267] | apoptotic nuclei; also recorded: abnormal macronuclei that are multilobed |  |  | approximate two-fold increase | 36% | 62% |  |  | nuclear translocation of AIF | effective in reducing survivin protein levels in a concentration-dependent manner | 28% | 70% | 11% | concentration-dependent increase in Trypan blue-positive (dead) cells; also recorded: dose-dependent increase in cell death | 46% | 64% | 35.7% | 60%
d(GCTTCCCAGTCACATCCTGT) (antisense dG*dC*dT*dT*dC*dC*dC*dA*dG*dT*dC*dA*dC*dA*dT*dC*dC*dT*dG*dT) [Oligo 906, 20-mer phosphorothioate survivin antisense oligonucleotide, complementary to survivin mRNA 11897-11916] | abnormal macronuclei that are multilobed |  |  | approximate two-fold increase |  |  |  |  | nuclear translocation of AIF |  |  | 67% | 15% |  |  | 73% | 26.9% | 
